The source of these data is publication PMC8311651, “Controlling Intramolecular Interactions in the Design of Selective, High-Affinity Ligands for the CREBBP Bromodomain” (Journal of Medicinal Chemistry, 2021).

Values joined by “and” are separate entries in the source; they are usually repeats but may differ in a detail not shown here. Identical values can stand only once. Like-named read-outs stand apart in the source and are kept apart here.

The target of assay [1] is T1, CREBBP bromodomain (Homo sapiens, UniProt Q92793). The experiment in a line: Isothermal titration calorimetry (ITC), CREBBP bromodomain. In kind it is binding. The protocol: Figure S11. The isothermal titration calorimetry (ITC) data for the compounds shown, measured for the CREBBP bromodomain.
(§1) Isothermal Titration Calorimetry. All calorimetric experiments were performed on a MicroCal iTC200 or MicroCal PEAQ-ITC Automated (Malvern) and analyzed with the MicroCal PEAQ-ITC Analysis software (Malvern 1.1.0.1262) using a single binding site model, with the N number set to 1. The first data point was excluded from the analysis.
(§2) BRD4(1) and CREBBP bromodomains were dialyzed at 4 °C overnight in a Slide-A-Lyzer® MINI Dialysis Device (2000 MWCO; Thermo Scientific Life Technologies) into 50 mM HEPES, 150 mM NaCl containing 0.2% DMSO; pH 7.4. Proteins were centrifuged to remove […]
(§3) Protein concentration were determined by measuring
(§4) Technologies Inc.) by using the predicted protein absorbance (CREBBP: ε280: […]
(§5) dissolved as 10 to 50 mM DMSO stock solution and diluted to the required concentration using dialysis buffer. The cell was stirred at 750 rpm, reference power set to 5 μcal/sec and temperature held at 25 °C. After an initial delay of 60 sec, 20 × 2 μL injections (first injection 0.4 μL) were performed with a spacing of 150 sec. Heated dilutions were measured under the same conditions and subtracted for analysis. Small molecule solutions in the calorimetric
On the technique in general: Isothermal titration calorimetry measures the heat released or taken up as one component is titrated into another.
Target sequence in this assay (Q92793 1081-1197): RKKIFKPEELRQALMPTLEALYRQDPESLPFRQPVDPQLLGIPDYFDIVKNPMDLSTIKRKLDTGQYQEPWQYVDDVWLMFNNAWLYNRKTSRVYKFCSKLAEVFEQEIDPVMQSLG

Assay [2] concerns the target T2, BRD4(1) (Homo sapiens, UniProt O60885). The experiment in a line: Isothermal titration calorimetry (ITC), BRD4(1). In kind it is binding. The procedure: as §1, §2, §3, §4, §5
For assay [3], the target named is T1, CREBBP bromodomain. The assay is described as follows: BROMOscan (bromoKdELECT), CREBBP. In kind it is binding. Particulars: concentrations of up to 1 μM. The protocol: (§6) Figure 7 Representation of the bromoKdELECT data for (A) compound 2 and (B) compound 3. Using the BROMOscan platform, Kd values were determined for 12 phylogenetically diverse bromodomains (ATAD2B, BRD2(1), BRD4(1), BRD7, BRD9, BRPF1, CREBBP, EP300, PCAF, SMARCA4, TAF1(2), and TRIM24).
Target sequence in this assay (Q92793 1085-1192 limits assumed): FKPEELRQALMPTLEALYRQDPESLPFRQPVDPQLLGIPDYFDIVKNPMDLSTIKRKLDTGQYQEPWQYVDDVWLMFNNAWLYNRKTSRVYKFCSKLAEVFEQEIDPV

In assay [4] the target is T3, EP300 bromodomain (Homo sapiens, UniProt Q09472).
T3 sequence (Q09472 1049-1156 limits assumed): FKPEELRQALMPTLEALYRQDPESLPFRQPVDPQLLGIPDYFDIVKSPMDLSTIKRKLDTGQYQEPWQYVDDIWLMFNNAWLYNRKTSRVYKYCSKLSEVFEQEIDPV
The experiment in a line: BROMOscan (bromoKdELECT), EP300. In kind it is binding. To be noted: concentrations of up to 1 μM. The procedure:
as §6

The test system of assay [5] is ATAD2B, BRD2(1), BRD4(1), BRD7, BRD9, BRPF1, PCAF, SMARCA4, TAF1(2), TRIM24 bromodomains. The experiment in a line: BROMOscan (bromoKdELECT), other bromodomains of the panel. In kind it is binding. To be noted: concentrations of up to 1 μM. The procedure: as §6
In assay [6] the test system is c-Myc in HCT116 cells. The assay is described as follows: c-Myc protein level in HCT116 cells (Western blot). In kind it is cell-based, human. To be noted: HCT116, 10 μM, 6-24 h. Background: In western blotting, separated proteins are transferred to a membrane and probed.
The subject of assay [7] is c-Myc mRNA in HCT116 cells. The assay is described as follows: c-Myc mRNA level in HCT116 cells (Q-PCR). In kind it is cell-based, human. To be noted: HCT116, 10 μM, Q-PCR vs 18S. The protocol:
(A) HCT116 cells were exposed to 2 (10 μM) for the times shown. Western blots were then carried out for the proteins indicated. β-Actin is included as a loading control. (B) HCT116 cells were exposed to 2 (10 μM) for the times indicated followed by mRNA preparation. Q-PCR was then carried out to determine c-Myc mRNA levels compared to the 18S. Data were analyzed using one-way ANOVA. *P < 0.05, **P < 0.01, ***P < 0.001. […] (E) HCT116 cells were exposed to 2 (10 μM) or I-CBP112 for the times indicated. […]
Petri dishes overnight. Following compound treatment, cells were collected, and RNA was
isolated using TRIzol (Invitrogen/Life Technologies) according to the manufacturer’s
instructions. For qPCR expression analysis, cDNA was reverse transcribed from total RNA
using the Verso Kit (Thermo Scientific). qPCR was performed using the SYBR Green PCR
Master Mix Kit (Applied Biosystems) in a 7500 FAST Real-Time PCR thermocycler with
v2.0.5 software (Applied Biosystems). The following sequences of qPCR primers were used: […]
(§7) c-MYC For: […], c-MYC Rev: […],
18S For: […], 18S Rev: […]. The
c-MYC mRNA fold change was calculated using a 2–ΔΔCt method and expressed in relation
to the 18S reference gene. The qPCR graph shown represents the mean ± SD of 3 biological

The test system of assay [8] is H3K18Ac in HCT116 cells. The experiment in a line: H3K18 acetylation in HCT116 cells (Western blot). The assay is classed as cell-based, human. To be noted: HCT116, 10 μM. The protocol:
(§8) (A) HCT116 cells were exposed to 2 (10 μM) for the times shown. Western blots were then carried out for the proteins indicated. β-Actin is included as a loading control. (B) HCT116 cells were exposed to 2 (10 μM) for the times indicated followed by mRNA preparation. Q-PCR was then carried out to determine c-Myc mRNA levels compared to the 18S. Data were analyzed using one-way ANOVA. *P < 0.05, **P < 0.01, ***P < 0.001. […] (E) HCT116 cells were exposed to 2 (10 μM) or I-CBP112 for the times indicated.
(§9) overnight. Following compound treatment, cells were collected and lysed in urea buffer (9 M
(§10) urea, 75 mM Tris-HCl pH 7.5, 0.15 M β-mercaptoethanol). Proteins (50 µg) were separated
(§11) by gel electrophoresis on a 4-20% Tris-glycine gel and subjected to immunoblotting. The
(§12) 15, Santa Cruz). Secondary antibodies IRDye® 680RD Goat anti-Mouse IgG (H+L) and
(§13) IRDye® 680RD Goat anti-Rabbit IgG (H+L) were from LI-COR Biosciences. The Odyssey
(§14) infrared system (LI-COR) was used to image Western blots. […]
as §7
(§15) 18S For: […], 18S Rev: […]. […]

Assay [9] deals with H3K27Ac in HCT116 cells. The experiment in a line: H3K27 acetylation in HCT116 cells (Western blot). The assay is classed as cell-based, human. To be noted: HCT116, 10 μM. The protocol: as §8, §9, §10, §11, §12, §13, §14, §7, §15
Assay [10] concerns HIF-1α in HCT116 cells. The assay is described as follows: HIF-1α level in HCT116 cells in hypoxia (Western blot). In kind it is cell-based, human. Particulars: HCT116, 10 μM, hypoxia (<0.1% O2).
The target of assay [11] is T2, BRD4(1). To be noted: read-out: BRD4(1) Kd (NMR); ligand-observed 1H NMR, estimated Kd.
Description: The reduction of the signal for the 4,5-dihydrobenzodiazepinone methyl group upon
BRD4(1) addition was used to monitor BRD4(1) binding.
The curves were derived from the integral reduction for the signal of the methyl
group located at 4,5-dihydrobenzodiazepinone headgroup upon BRD4(1) addition, detected
by means of Ligand-observed 1H NMR. E Kd values were determined using the one site-
specific binding model least square fit non-linear regression from Graphpad Prism®.
X = concentration of the ligand
Bmax = maximum binding in the same units as Y
Kd = dissociation constant in the same units as X
Ligand-Observed Proton NMR. BRD4(1) bromodomain protein in HEPES containing storage buffers were exchanged into Invitrogen 10 mM Na/K phosphate buffer (0.9% NaCl, pH 7.6) using dialysis. BRD4(1) bromodomain protein concentrations in the phosphate
Samples were prepared to a total sample volume of
160 µL phosphate buffer, with 50 µM compound from 5 mM D6-DMSO stock solutions, 10%
D2O for signal locking and the appropriate amount of protein. After loading into 3 mm
Hildenberg NMR tubes for Bruker Matchä system, samples were briefly centrifuged in a
manual benchtop rotor. Spectra were recorded on a Bruker AVIII 700 MHz spectrometer
with a TXI probe using a standard excitation-sculpting water suppression pulse sequence
For each compound, a compound only sample was recorded as a
reference, followed by samples with protein. Each spectrum was processed with Bruker
Topspinä 3.2, the data were recorded using Microsoft ExcelÒ, then the Kd value was
calculated using the “one site – specific binding; non-linear regression” function using
Graphpad PrismÒ. In Topspin, spectra were phased corrected and calibrated to the residual
DMSO peak, then local baseline corrections were performed (“absf n” function). The integral
of the studied peaks and the DMSO reference peaks were calculated in each spectra for the
determined chemical shift range (constant ranges were used for each studied compound).
Using the ratio of integrals, the integral decrease of the peak of interest with increasing […]

The Kd is the equilibrium constant for the complex coming apart. On to `COc1ccc2c(c1)N(CCC/C=C/c1cccc3c1N[C@H](C)CC(=O)N3)CCC2` [Compound 2, (R,E)-6-(5-(7-Methoxy-3,4-dihydroquinolin-1(2H)-yl)pent-1-en-1-yl)-4-methyl-1,3,4,5-tetrahydro-2H-benzo[b][1,4]diazepin-2-one], for which the Kd in assay [1] is 102 ± 10 nM; in [3], 200 nM; in assay [4], 240 nM and 230 nM; in assay [11], 10300 ± 1890 nM. Moreover, the “selectivity for CREBBP versus BRD4(1)” value in assay [1] (BRD4(1) Kd from NMR) is > 100 fold. The “LLE (A – B)” value in assay [1] (CREBBP pKd or pIC50 (A) minus cLogD pH7.4 (B)) was 1.92. Also, in assay [1] (ITC), the “CREBBP pKd” value came out at 7.0. The “CREBBP / BRD4(1) selectivity” value in [1] (Table 2, BRD4(1) Kd from ITC and NMR) is recorded as 101. In [1] (from CREBBP pKd or pIC50), this compound gave an LE of 0.33. Further, the “BRD4(1) Kd (ITC)” value in assay [2] is “n.b. and n.b.^c”; in [2] (csv supplement), “n.b”. Further, in [2], the “binding to BRD4(1) by ITC (in words)” value was “unable to detect binding”. Also, the “binding to the other bromodomains of the panel (BROMOscan)” value in assay [5] is “no binding”. Moreover, in assay [6], the c-Myc expression entry is “reduces expression of c-Myc”. In addition, the “c-Myc mRNA level” value in assay [7] is reported as “effects were also observed on c-Myc mRNA”. In addition, the H3K18Ac level entry in assay [8] is “decrease”. The results for the “H3K18Ac level relative to t = 0” value in assay [8] (6 h) and in assay [8] (24 h) were ~30 % of t = 0 and ~70 % of t = 0, respectively. The H3K27Ac level result in assay [9] was “decrease”. Moreover, the “H3K27Ac level relative to t = 0” value in assay [9] (6 h) was ~30 % of t = 0; in assay [9] (24 h), ~70 % of t = 0. Also, in assay [10], the “HIF-1α level in hypoxia” value is “stabilization of HIF-1α above the level observed in hypoxia alone”.
